The subject of data set [1] is T. cruzi intracellular amastigotes in VERO cells. Nature of the data set: DAPI staining and intracellular amastigote quantification in infected VERO cells. Type of data set: cell-based, Trypanosoma cruzi. The conditions noted are these: 1 μM, 48 hours, control 12.9 ± 2.2. As to the method: VERO (Chlorocebus sabaeus kidney fibroblasts, ATCC number: CCL-81) cells were exposed to T. cruzi trypomastigotes (Y strain) at a 5:1 ratio (trypomastigotes:cells) for 24 hours. The cells were then washed and treated with different compounds, at 0.1 and 1 μM, for 48 hours. The cells were washed and fixed in cold methanol (70%) overnight; the fixed cells were washed, and 1 mL of PBS (pH 7.4) was added. The DNA was stained with DAPI (NucBlue, Molecular Probes, USA) following the manufacturer’s instructions. The cells were photographed using a Nikon Eclipse 400 fluorescence microscope at 358 nm (excitation) and 461 nm (emission). Five images were obtained per well, and each picture was analyzed by two independent researchers.

In data set [2] the test system is T. cruzi trypomastigotes (Y strain) mitochondrial permeability transition pore. Nature of the data set: Mitochondrial permeability transition pore opening (calcein AM / CoCl2). The settings on record: 1 hour, Fig 6B. Type of data set: cell-based, Trypanosoma cruzi. As to the method: The opening of mitochondrial permeability transition pores was assessed using the calcein AM probe, adapting the method described by Huang et al (2014). Calcein-AM is a lipophilic probe that can enter the cell, including the mitochondria, and is then cleaved by cellular esterases, releasing the fluorescent probe calcein. T. cruzi trypomastigotes (Y strain, 5 x 10^6 parasites/mL) were stained with 100 nM calcein AM (Molecular Probes, Applied Biosytems, USA) and incubated at 37°C for 15 min in the presence of […] of CoCl2 to quench the cytosolic fluorescence of calcein. Then, the parasites were washed with PBS and resuspended in RPMI medium, without phenol red, supplemented with 0.3 mM of Ca^+2. The parasites were then seeded in 24-well plates and exposed to the different compounds (TPP^+-C8, TPP^+-C10, TPP^+-C11, and TPP^+-C12) at 1 or 5 μM for 1 hour. As a positive control, one group was exposed to ionomycin (0.5 μM). The samples were measured using a FACS Aria III flow cytometer (BD Biosciences, USA) with the 494/517 filter to detect calcein fluorescence. For every measurement, 5,000 events were recorded. The raw flow cytometry data were analyzed using FACSDiva 6.1 software (BD Biosciences). The results were analyzed using the median fluorescence intensity (MFI) from the frequency histograms. Thus, we used the median intensity of the control group (parasites incubated with calcein AM and CoCl2) to establish 100% of mitochondrial fluorescence, thereby establishing percent ratios between the treatment groups and the control.

The next data set concerns mouse. Set-up: method as in PMID 24568614. The settings on record: 15 mg/kg; cited from earlier work.
Data set [3] concerns T. cruzi trypomastigotes (Y strain). In words: MTT reduction viability assay on isolated trypomastigotes. The conditions noted are these: for EC50: Trypanosoma cruzi, Y strain, 24 hours exposure, MTT assay, mean ± SD, read-out: EC50 T. cruzi trypomastigote; for Selectivity index (VERO/T. cruzi): ratio of EC50 VERO cells to EC50 T. cruzi trypomastigote. Type of data set: cell-based, Trypanosoma cruzi. As to the method:
Trypomastigotes (Y strain, DTU T. cruzi II) were obtained from infected VERO cells (Chlorocebus sabaeus kidney fibroblasts obtained from ATCC, ATCC number: CCL-81). The cells were exposed to trypomastigotes (Y strain) at a 3:1 density (trypomastigote:cell). The trypomastigotes were allowed to infect the cells for 24 h, and the supernatant was then extracted. The trypomastigotes were released from VERO cells at 4 days after infection. The parasites were harvested and collected for viability assays. The effect of the drugs on parasite viability was evaluated using the tetrazolium salt (MTT) reduction assay. […] Alternatively, VERO cells attached to the surface of 96-well plates were washed and incubated with MTT (5 mg/mL). After incubation for 4 h at 37°C, the generated formazan crystals were dissolved with 100 μL of 10% (w/v) sodium dodecyl sulfate (SDS) in 0.01 M HCl. The plates were then incubated overnight at 37°C, and the optical density (OD) was determined using a microplate reader (Labsystems Multiskan MS, Finland) at 570 nm. Under these conditions, the OD is directly proportional to the number of viable cells in each well [33, 34]. All of the experiments were performed at least three times. […] The data from each experiment were plotted using the formazan absorbance versus the log of the concentration, and the plot was fitted to the dose-response (four-parameters) equation using the software Graph Pad Prism V5.0, obtaining the EC50 value per drug and per experiment. The data are expressed as the mean ± DS of the EC50s obtained from each experiment.
(In general: Formazan colour is commonly taken as a measure of viable cells.)

Regarding `O=C(OCCCCCCCCCC[P+](c1ccccc1)(c1ccccc1)c1ccccc1)c1cc(O)c(O)c(O)c1.[Br-]` [TPP^+-C10, triphenyl(10-((3,4,5-trihydroxybenzoyl)oxy)-decyl) phosphonium bromide], the “number of amastigotes per infected cell” value in data set [1] was found to be 2.5 ± 1.1. In data set [2] (5 μM), the “mitochondrial calcein fluorescence (median fluorescence intensity)” value is 22 % of the control. For the same compound, the “safety in mouse models” value in the data set with mouse is recorded as “safe”. In data set [3], the EC50 (in general, the concentration at which the effect is half-maximal) was 1 ± 0.6 µM and the “Selectivity index (VERO/T. cruzi)” value was 11.3.
As to `O=C(OCCCCCCCCCCCC[P+](c1ccccc1)(c1ccccc1)c1ccccc1)c1cc(O)c(O)c(O)c1.[Br-]` [TPP^+-C12, triphenyl(12-((3,4,5-trihydroxybenzoyl)oxy)-dodecyl) phosphonium bromide], the “number of amastigotes per infected cell” value in data set [1] is 2.0 ± 0.7. In addition, the entries for the “mitochondrial calcein fluorescence (median fluorescence intensity)” value in data set [2] (1 μM) and in data set [2] (5 μM) were 29 % of the control and 20 % of the control, respectively. The EC50 in data set [3] is 1 ± 0.7 µM. In data set [3], the “Selectivity index (VERO/T. cruzi)” value amounted to 10.9.

The values are drawn from paper PMC4552745, “Novel Gallate Triphenylphosphonium Derivatives with Potent Antichagasic Activity” (PLoS ONE, 2015).
